pKa data for 70 compounds are collected here from ChEMBL document CHEMBL2448811, “Comparison of the accuracy of experimental and predicted pKa values of basic and acidic compounds” (Pharm Res, 2013).

The data set can be described thus: physchem.

For orientation: pKa means the pH at which an ionisable group is half protonated. The low end stands for a stronger acid or weaker base, the high end for a weaker acid or stronger base. `CC(Cc1ccc(O)c(O)c1)(NN)C(=O)O` (stereo not given) yielded a pKa of 3.5. For `CCCCC1CCN(CCCC(=O)c2ccccc2C)CC1`, the pKa came to 7.85. The value for `CC1CCN(CC(=O)Nc2nc(-c3ccccc3)cs2)CC1` was 10.5.

As for `NC(=O)C1CCN(CC(=O)Nc2nc(-c3ccccc3)cs2)CC1`, the pKa was 10.2. On to `Cc1ccc(C)c(N2CCN(C3CCCC(C)C3)CC2)c1` (stereo not given), for which the pKa was determined as 7.16. The value for `O=C(O)c1ccccc1C(=O)Nc1nc(-c2ccccc2)cs1` was 3.4; that for `COc1ccc(C(=O)CCC(=O)O)cc1` was 4.7. Consider `CC1CN(c2c(F)c(N)c3c(=O)c(C(=O)O)cn(C4CC4)c3c2F)CC(C)N1` (stereo not given), for which the pKa is 6.1. The value for `Cc1cnc(NC(=O)CN2CCCCC2)s1` was 10.6; that for `O=C(O)c1ccccc1-c1ncc(-c2ccccc2)o1` was 2.9. `O=C(CN1CCCCC1)Nc1nc(-c2ccc(Cl)cc2)cs1` registered a pKa of 10.4.

Compound `CCOC(=O)c1csc(NC(=O)CN2CCCCC2)n1` yielded a pKa of 9.9. The value for `Cc1nc(NC(=O)CCCC(=O)O)sc1C` was 2.5. `O=C(O)CSCC(=O)Nc1nc(-c2ccccc2)c(-c2ccccc2)s1` registered a pKa of 4.

The compound `O=C(O)c1cc(-c2ccccc2)nc(O)n1` returned a pKa of 2.5.

In turn, `FC(F)(F)c1cccc(N2CCN(C3C4CC5CC(C4)CC3C5)CC2)c1` (stereo not given) registered a pKa of 7.45. `Nc1cc(-c2ccccc2)nc2ccc(Br)cc12` came in with a pKa of 7.4. The same measure for `Nc1cc(-c2ccccc2)nc2ccc(Cl)cc12`: 7.4; for `NCc1cc(-c2ccccc2)nc2ccccc12`: 8.37; for `O=C(CN1CCCCC1)Nc1ncc(Cc2cccc3ccccc23)s1`: 10.5.

In turn, `c1cnc(N2CCN(C3CC4CCC3C4)CC2)nc1` (stereo not given) gave a pKa of 8. The value for `CC[C@]12CCCN3CCc4c(n(c5ccccc45)[C@@](O)(C(=O)OC)C1)C32` (stereo not given in full) was 7.9; that for `Cc1c(Cl)cccc1-n1ncc(C(=O)Nc2nccs2)c1C1CCNCC1` was 9.4. On to `Cc1ccc(C)c(N2CCN(C3C4CC5CC(C4)CC3C5)CC2)c1` (stereo not given), for which the pKa came out at 7.6. The value for `Cc1ccc(C)c(N2CCN(C3CCC(C)C3)CC2)c1` (stereo not given) was 7.5; that for `Cc1ccc(C)c(N2CCN(C3CCCCCC3)CC2)c1` was 7.54; that for `CC1CCC(N2CCN(c3ccccc3F)CC2)CC1` (stereo not given) was 7.4.

`Cc1ccc(-n2ncc(C(=O)Nc3nccs3)c2C2CCNCC2)cc1C` came in with a pKa of 9.5. The value for `Cc1cccc(-n2ncc(C(=O)Nc3nccs3)c2C2CCNCC2)c1` was 9.5. The value for `COc1ccc2nc(NC(=O)CN3CCC(C)CC3)sc2c1` was 10; that for `CC1CCN(CC(=O)Nc2ncc(Cc3cccc4ccccc34)s2)CC1` was 10.6; that for `CN(C)CCNC(=O)c1cc(-c2ccccc2)nc2ccccc12` was 8.3. Compound `COc1cc(CN2CCC3(C=Cc4ccccc43)CC2)cc(OC)c1OC` had a pKa of 8.4. The same measure for `COc1ccc2nc(-c3ccccc3)cc(N)c2c1`: 8.7; for `COc1ccc2nc(NC(=O)CN3CCCCC3)sc2c1`: 10; for `CC1OC(O[C@H]2/C=C/C=C/C=C/C=C/C=C/C=C/C=C/[C@H](C)[C@@H](O)[C@@H](C)[C@H](C)OC(=O)C[C@H](O)C[C@H](O)CC[C@@H](O)[C@H](O)C[C@H](O)C[C@]3(O)C[C@H](O)[C@@H](C(=O)O)[C@H](C2)O3)C(O)C(N)C1O` (stereo not given in full): 3.1. `O=C1NCN(c2ccccc2)C12CCN(CCCC(c1ccc(F)cc1)c1ccc(F)cc1)CC2` came in with a pKa of 7.7. The value for `O=C(N[C@H]1CCCC[C@H]1C(=O)O)c1ccccc1` was 3.3; that for `Nc1c2c(nc3ccccc13)-c1ccccc1CC2` was 8.1; that for `C=CC1=C(C(=O)O)N2C(=O)[C@@H](NC(=O)/C(=N\O)c3csc(N)n3)[C@H]2SC1` was 3.35. The same measure for `CN(C)CCC=C1c2ccccc2CCc2ccccc21` [AMITRIPTYLINE]: 8.2. On to `CN(C)CCC(c1ccc(Br)cc1)c1ccccn1` (stereo not given) [BROMPHENIRAMINE], for which the pKa was 10.1.

Turning to `Cn1nnnc1SCC1=C(C(=O)O)N2C(=O)[C@@H](NC(=O)[C@H](O)c3ccccc3)[C@H]2SC1` [CEFAMANDOLE], the pKa turned out to be 3.4.

The compound `CCN(CC)CCOC(=O)c1ccc(N)cc1Cl` [CHLOROPROCAINE] came in with a pKa of 9. The value for `CN(C)CCCN1c2ccccc2CCc2ccc(Cl)cc21` [CLOMIPRAMINE] was 9.1; that for `CN1CCN(C2=Nc3cc(Cl)ccc3Nc3ccccc32)CC1` [CLOZAPINE] was 7.8. The value for `CN(C)CCC=C1c2ccccc2C=Cc2ccccc21` [CYCLOBENZAPRINE] was 8.24; that for `O=C(CCCN1CC=C(n2c(=O)[nH]c3ccccc32)CC1)c1ccc(F)cc1` [DROPERIDOL] was 7.6; that for `CCCCOc1ccc(C(=O)CCN2CCCCC2)cc1` [DYCLONINE] was 9. The value for `C=C(CC)C(=O)c1ccc(OCC(=O)O)c(Cl)c1Cl` [ETHACRYNIC ACID] was 3.1.

In turn, `CC(NCCC(c1ccccc1)c1ccccc1)c1ccccc1` (stereo not given) [FENDILINE] had a pKa of 9.3. The compound `CC(C(=O)O)c1ccc(-c2ccccc2)c(F)c1` (stereo not given) [FLURBIPROFEN] yielded a pKa of 4.3. The same measure for `O=C(CCCN1CCC(O)(c2ccc(Cl)cc2)CC1)c1ccc(F)cc1` [HALOPERIDOL]: 8.5; for `CCn1cc(C(=O)O)c(=O)c2cc(F)c(N3CCNC(C)C3)c(F)c21` (stereo not given) [LOMEFLOXACIN]: 5.74; for `CN1CCCCC1CCN1c2ccccc2Sc2ccc([S+](C)[O-])cc21` (stereo not given) [MESORIDAZINE]: 9.5. The value for `CC(CN(C)C)CN1c2ccccc2Sc2ccccc21` (stereo not given) [METHYLPROMAZINE] was 8.5; that for `Clc1ccc2c(c1)N=C(N1CCNCC1)c1ccccc1N2` [N-DESMETHYLCLOZAPINE] was 8.9; that for `O=C(O)c1cccnc1` [NIACIN] was 2.4. The same measure for `CCn1cc(C(=O)O)c(=O)c2cc(F)c(N3CCNCC3)cc21` [NORFLOXACIN]: 6.05. Regarding `O=C1CCCN1CC#CCN1CCCC1` [OXOTREMORINE], the pKa amounted to 8.4. The same measure for `O=c1[nH]c2ccccc2n1C1CCN(CCCC(c2ccc(F)cc2)c2ccc(F)cc2)CC1` [PIMOZIDE]: 7.45; for `CC(CN1c2ccccc2Sc2ccccc21)N(C)C` (stereo not given) [PROMETHAZINE]: 8.7; for `CCOc1cc(CC(=O)N[C@@H](CC(C)C)c2ccccc2N2CCCCC2)ccc1C(=O)O` [REPAGLINIDE]: 3.75. Take `CN[C@H]1CC[C@@H](c2ccc(Cl)c(Cl)c2)c2ccccc21` [SERTRALINE]: the pKa was 8.

`CC(C(=O)O)c1ccc(C(=O)c2cccs2)cc1` (stereo not given) [SUPROFEN]: the pKa is 4.3. Regarding `CC/C(=C(\c1ccccc1)c1ccc(OCCN(C)C)cc1)c1ccccc1` [TAMOXIFEN], the pKa amounted to 10. The same measure for `CN(C/C=C/C#CC(C)(C)C)Cc1cccc2ccccc12` [TERBINAFINE]: 7.12; for `CC(C)(C)c1ccc(C(O)CCCN2CCC(C(O)(c3ccccc3)c3ccccc3)CC2)cc1` (stereo not given) [TERFENADINE]: 8.5; for `CCCCNc1ccc(C(=O)OCCN(C)C)cc1` [TETRACAINE]: 8.6. The same measure for `CC(CN(C)C)CN1c2ccccc2CCc2ccccc21` (stereo not given) [TRIMIPRAMINE]: 8.5.
